Assay results published in US8168651B2, “Protein kinase modulators” (Cylene Pharmaceuticals, Inc., priority 2008, dated 2012).

Assays:
[1] = biological target: recombinant human CK2 (Homo sapiens (Human), UniProt P68400); test: CK2 assay (cell-free, 33P-ATP filter plate); assay type: biochemical; settings: 500 nM compound, cell-free assay; read-out: CK2: % inh 500 nM
[2] = tested on: HCT-116 human colorectal carcinoma cells; test: Cell-proliferation assay using Alamar Blue dye; assay type: cell-based; settings: Homo sapiens, HCT-116, second HCT-116 column (c8); read-out: HCT-116 (uM) cell proliferation modulatory activity;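 also: cells exposed to compound for about 4 days, then Alamar Blue added and dye fluorescence read after about 4 h, compared with medium-only control wells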
[3] = biological target: recombinant human PIM1 (Homo sapiens (Human), UniProt P11309); test: PIM-1 kinase activity in cell-free in vitro assay; assay type: biochemical; settings: cell-free assay; for inhibition at 0.5 µM: 500 nM compound, read-out: PIM-1: % inh 500 nM
[4] = tested on: K-562; test: Cell proliferation modulatory activity, K-562; assay type: cell-based; settings: Homo sapiens, K562; K-562 cells
[5] = tested on: MV-4-11; test: Cell proliferation modulatory activity, MV-4-11; assay type: cell-based; settings: Homo sapiens, MV4-11; MV-4-11 cells

Chain of recombinant human CK2 (P68400 whole entry): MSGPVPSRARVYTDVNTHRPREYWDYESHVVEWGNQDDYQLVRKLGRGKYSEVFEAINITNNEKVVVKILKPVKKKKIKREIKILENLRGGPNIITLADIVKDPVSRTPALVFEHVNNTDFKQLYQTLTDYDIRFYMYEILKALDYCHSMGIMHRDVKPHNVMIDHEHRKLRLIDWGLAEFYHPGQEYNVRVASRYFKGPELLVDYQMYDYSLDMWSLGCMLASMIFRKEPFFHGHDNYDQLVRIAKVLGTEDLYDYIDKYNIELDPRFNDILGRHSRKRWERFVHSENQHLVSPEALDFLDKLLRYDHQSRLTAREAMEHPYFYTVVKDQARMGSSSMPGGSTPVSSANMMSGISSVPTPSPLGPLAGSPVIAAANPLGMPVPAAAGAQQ
Chain of recombinant human CK2 (P67870 whole entry partner): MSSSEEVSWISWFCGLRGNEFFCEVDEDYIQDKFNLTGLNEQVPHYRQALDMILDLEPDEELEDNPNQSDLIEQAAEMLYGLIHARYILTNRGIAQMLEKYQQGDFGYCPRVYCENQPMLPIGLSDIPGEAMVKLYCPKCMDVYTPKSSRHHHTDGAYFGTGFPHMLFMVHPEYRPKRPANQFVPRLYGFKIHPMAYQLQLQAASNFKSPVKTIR
Chain of recombinant human PIM1 (P11309 whole entry): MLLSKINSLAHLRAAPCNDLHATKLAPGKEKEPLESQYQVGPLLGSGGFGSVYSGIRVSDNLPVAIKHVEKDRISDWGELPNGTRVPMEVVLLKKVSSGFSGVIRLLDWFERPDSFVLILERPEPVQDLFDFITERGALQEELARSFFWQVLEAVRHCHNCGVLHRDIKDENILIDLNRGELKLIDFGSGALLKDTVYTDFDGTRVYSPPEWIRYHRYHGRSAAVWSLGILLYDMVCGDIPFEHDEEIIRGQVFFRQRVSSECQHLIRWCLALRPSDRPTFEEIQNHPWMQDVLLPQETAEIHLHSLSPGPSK

SMILES | inhibition at 0.5 µM [1] [%] | IC50 [2] [µM] | inhibition at 0.5 µM [3] [%] | IC50 [4] [µM] | IC50 [5] [µM] | IC50 [3] [µM]
Cc1c(-c2ccccc2)nn(C)c1Nc1nc2cc(C(=O)O)ccc2c2cnccc12 | 76.2 | 2.34 | 26.2 | > 10 | 1.43 | –
O=C(O)c1ccc2c(c1)nc(Nc1cccc3ncccc13)c1ccncc12 | 101 | > 10 | 79.1 | > 10 | > 10 | 0.281
O=C(O)c1ccc2c(c1)nc(Nc1cccc3ccccc13)c1ccncc12 | 93.1 | > 10 | 35.7 | > 10 | > 10 | –
CCn1c2ccccc2c2cc(Nc3nc4cc(C(=O)O)ccc4c4cnccc34)ccc21 | 98.1 | 9.82 | 32.6 | 0.11 | 3.28 | –
Cn1cnnc1-c1cccc(Nc2nc3cc(C(=O)O)ccc3c3cnccc23)c1 | 94.4 | > 10 | 54.9 | > 10 | > 10 | 0.344
Cc1ccc(Nc2nc3cc(C(=O)O)ccc3c3cnccc23)cc1 | 98 | > 10 | 60.6 | 0.132 | 9.31 | 0.478
Fc1ccc(Nc2nc3cc(-c4nnn[nH]4)ccc3c3cscc23)cc1Cl | 51.1 | > 10 | 14.2 | > 10 | 5.71 | –
Fc1ccc(Nc2nc3cc(-c4nnn[nH]4)ccc3c3cscc23)cc1 | 37.6 | > 10 | 30.6 | > 10 | 5.47 | –
Clc1ccc(Nc2nc3cc(-c4nnn[nH]4)ccc3c3cscc23)cc1 | 39.5 | > 10 | 15.2 | > 10 | 6.44 | –
Fc1cc(Cl)cc(Nc2nc3cc(-c4nnn[nH]4)ccc3c3cscc23)c1 | 57.3 | > 10 | 11.4 | > 10 | > 10 | –
Clc1cccc(Nc2nc3cc(-c4nnn[nH]4)ccc3c3cscc23)c1 | 63.3 | > 10 | 17.9 | > 10 | > 10 | –
Fc1cccc(Nc2nc3cc(-c4nnn[nH]4)ccc3c3cscc23)c1 | 52.6 | > 10 | 14 | > 10 | > 10 | –
Fc1cc(F)cc(Nc2nc3cc(-c4nnn[nH]4)ccc3c3cscc23)c1 | 52.6 | > 10 | 11.1 | > 10 | > 10 | –
FC(F)(F)c1cccc(Nc2nc3cc(-c4nnn[nH]4)ccc3c3cscc23)c1 | 23.1 | > 10 | -6.51 | > 10 | > 10 | –
CCN1CCC[C@@H]1CNc1nc2cc(-c3nnn[nH]3)ccc2c2sccc12 | 78.1 | > 10 | 89.9 | > 10 | > 10 | 0.065
CCN1CCC[C@H]1CNc1nc2cc(-c3nnn[nH]3)ccc2c2sccc12 | 59.8 | > 10 | 84.1 | > 10 | > 10 | 0.118
CN(C)CCNc1nc2cc(-c3nnn[nH]3)ccc2c2sc(-c3ccccc3)cc12 | 0.269 | > 10 | -14.8 | > 10 | > 10 | –
N#Cc1ccc2c(c1)nc(Cl)c1sccc12 | -11.5 | > 10 | -23.9 | > 10 | > 10 | –
Clc1cccc(Nc2nc3cc(-c4nnn[nH]4)ccc3c3ccsc23)c1 | 56.2 | > 10 | 31.9 | > 10 | 4.47 | –
